According to patent US20250283058A1, “USE OF p55-GAMMA GENE AND/OR p55-GAMMA PROTEIN AS TARGET IN MAINTAINING CARDIAC IRON HOMEOSTASIS AND TREATING RELATED DISEASE” (BEIJING FRIENDSHIP HOSPITAL, CAPITAL MEDICAL UNIVERSITY, priority 2024, published 2025):
Where a SMILES comes first, the peptide text is derived from it. The star is where a group is joined. Cbz = O=C(OCc1ccccc1)*

Columns and labels:
p55γ gene = p55γ gene mRNA and protein levels in cardiomyocytes treated with ferroptosis inducers (qPCR, Western blot); assay type: cell-based; conditions: NRVMs treated with ferroptosis inducer vs vehicle group
Method: The cultured cardiomyocytes were divided into: an erastin group and a vehicle group, where the NRVMs were treated with erastin in the erastin group, while the cardiomyocytes in the vehicle group were not treated in any way. The mRNA and protein levels of p55γ gene in the two groups of cardiomyocytes were detected by conventional quantitative polymerase chain reaction (qPCR) and Western blot methods.
The mRNA and protein levels of p55γ gene in the two groups of cardiomyocytes were detected by conventional qPCR and Western blot methods.

IRP2 = IRP2 mRNA and protein levels in cardiomyocytes (qPCR, Western blot); assay type: cell-based; conditions: Ad-p55γ-infected cardiomyocytes treated with MG132
Method: To elucidate whether the p55γ gene could regulate the mRNA stability of Tfr1through the IRPs-IRE system, the expression of IRP2 in NRVMs was evaluated. Ad-p55γ was used to infect cardiomyocytes, and qPCR and Western blot were conducted to detect Ad-p55γ-infected cardiomyocytes for 48 h.
Ad-p55γ-infected cardiomyocytes were treated with MG132. […] In order to further study whether p55γ could promote the ubiquitination and degradation of IRP2, the target gene sequences of p55γ, IRP2, and UB were found in NCBI. A pcDNA3.1(+) vector was used, sequence analysis software was used to find the restriction endonuclease cleavage sites present in the target gene sequences, and plasmids for p55γ, IRP2, and […] were constructed. The plasmids were separately transfected into HEK293T cells, which were collected 24 h later and IRP2 ubiquitination was detected. Western blot was conducted to detect the ubiquitination level of IRP2.

cardiomyocytes (NRVMs) = assay: H/R injury model in cardiomyocytes with perhexiline; assay type: cell-based
Method: (§1) In view of the importance of p55γ in combating ferroptosis, it is particularly important to find potential activators of p55γ for the treatment of I/R injury. Therefore, potential activators of p55γ were predicted using existing small molecule drug libraries. Subsequently, molecular docking analysis was conducted based on the crystal structure of p55γ. […] To determine the potential role of perhexiline in cardiomyocyte ferroptosis, experiments were first done in cardiomyocytes. […] The effect of perhexiline was further tested in the context of H/R injury model.

[1] = tested on: I/R injury-induced cardiac ferroptosis; assay: I/R injury model in mice pretreated with perhexiline (TTC staining, MDA); assay type: in vivo; conditions: intraperitoneal injection 24 h and 2 h before I/R
Method: p55γ knockout (p55γ^−/−) mice were established according to routine methods in the art. Male wild-type (WT) C57 mice and p55γ^−/− mice aged 8 to 12 weeks were selected to set up a sham operation control group and experimental groups, respectively, and the mice were intraperitoneally injected with perhexiline 24 h and 2 h before constructing the I/R injury model. TTC staining and MDA detection were conducted according to conventional methods in the art.

Tfr1 and IRP2 = assay: Western blot of Tfr1 and IRP2 after perhexiline treatment of cardiomyocytes; assay type: cell-based; conditions: 24 h treatment
Method: as §1

[2] = tested on: I/R injury-induced cardiac ferroptosis; assay: I/R injury model in mice with ferroptosis inhibitors (TTC staining, serum LDH, MDA); assay type: in vivo; conditions: for cardiac MDA content / serum LDH concentration: mice after I/R injury; for cardiac MDA content: compared with WT mice; for serum LDH concentration / I/R-induced myocardial infarct size: effect comparable to p55γ^h-TG mice; for I/R-induced myocardial infarct size: mice, TTC staining
Method: p55γ transgenic (p55γ^h-TG) mice were established according to routine methods in the art. Male wild-type (WT) C57 mice and p55γ^h-TG mice aged 8 to 12 weeks were selected to set up a sham operation control group and experimental groups, respectively, to construct I/R injury models. TTC staining, MDA detection, and oxidized lipid detection were conducted according to conventional methods in the art. To determine whether p55γ protein could inhibit I/R injury-induced cardiac ferroptosis, the experiments were carried out with the following groups: mice treated with saline, mice treated with Ferrostatin-1 (Fer-1) and Dexrazoxane (DXZ), and p55γ^h-TG mice. The cardiac infarction area of mice was detected by conventional TTC staining and the serum LDH concentration was assayed by LDH release kits. […] In addition, lipid peroxidation in the hearts of mice in each group was detected by intracellular MDA content assay. […] Given that the peroxidation of polyunsaturated fatty acids (PUFAs) is an important step in ferroptosis, and in order to further clarify the role of p55γ gene in ferroptosis, oxidized lipid substances in the hearts of mice from the […] group and WT-I/R group were measured using liquid chromatography-tandem mass spectrometry (LC-MS/MS).

[3] = cardiomyocytes, H/R injury model
[4] = with overexpression of IRP2 (IRP2 adenovirus)

Question: `COC(=O)c1ccc([C@@H]2c3[nH]c4ccccc4c3C[C@@H](C(=O)OC)N2C(=O)CCl)cc1` [RSL3] was tested. Which “protein level of p55γ gene” value (p55γ gene; Western blot) did it give?
Answer: down-regulated

Question: What about the “mRNA level of p55γ gene” value (p55γ gene; qPCR) of the same compound?
Answer: down-regulated

Question: How did the “p55γ-mediated decrease in IRP2 protein” value (IRP2) turn out when `CC(C)C[C@@H](C=O)NC(=O)[C@H](CC(C)C)NC(=O)[C@H](CC(C)C)NC(=O)OCc1ccccc1` [MG132] (Cbz-Leu-Leu-Leu-aldehyde) was run?
Answer: effectively eliminated

Question: `C1CCC(C(CC2CCCCN2)C2CCCCC2)CC1` (stereo not shown) [perhexiline] was tested. Which “decrease in cell activity induced by H/R injury” value (cardiomyocytes (NRVMs); [3]) did it give?
Answer: significantly blocked

Question: What about the “increase in ptgs2 mRNA levels induced by H/R injury” value (cardiomyocytes (NRVMs); [3]) of the same compound?
Answer: significantly blocked

Question: And the “inhibitory effect on H/R induced decrease in cell activity” value (cardiomyocytes (NRVMs); [4])?
Answer: could block the inhibitory effect

Question: And the “inhibitory effect on H/R induced increase in ptgs2 mRNA levels” value (cardiomyocytes (NRVMs); [4])?
Answer: could block the inhibitory effect

Question: What about the “level of MDA in the heart” value ([1]; WT mice) of the same compound?
Answer: reduce

Question: What about the myocardial infarct size ([1]; WT mice, TTC staining) of the same compound?
Answer: significantly reduce

Question: And the “cardioprotective effect (level of MDA in the heart)” value ([1]; p55γ^−/− mice)?
Answer: abolished

Question: What about the “cardioprotective effect (myocardial infarct size)” value ([1]; p55γ^−/− mice) of the same compound?
Answer: abolished

Question: What about the “protein level of IRP2” value (Tfr1 and IRP2) of the same compound?
Answer: significantly down-regulated

Question: What about the “protein level of Tfr1” value (Tfr1 and IRP2) of the same compound?
Answer: significantly down-regulated

Question: For `CCOC(=O)c1ccc(NC2CCCCC2)c(N)c1` [Fer-1, Ferrostatin-1], which “cardiac MDA content” value [2] is on record?
Answer: significantly reduced

Question: And the “serum LDH concentration” value [2]?
Answer: reduced

Question: And the “I/R-induced myocardial infarct size” value [2]?
Answer: reduced

Question: Which “cardiac MDA content” value [2] does the source give for `C[C@@H](CN1CC(=O)NC(=O)C1)N1CC(=O)NC(=O)C1` [DXZ, Dexrazoxane] here?
Answer: significantly reduced

Question: What about the “serum LDH concentration” value [2] of the same compound?
Answer: reduced

Question: And the “I/R-induced myocardial infarct size” value [2]?
Answer: reduced
